According to article PMC6943629, “Binding of Gold(III) Porphyrin by the Pro-metastatic Regulatory Protein Human Galectin-3” (Molecules, 2019):
Like-named read-outs stand apart in the source and are kept apart here. Blank lines part the entries; values can stand above or below the compound they belong to.

Assays:
[1] = molecular target: T1, full-length Gal3 (Gal3 FL) (Homo sapiens, UniProt P17931); test: Microscale thermophoresis (MST), Gal3 FL; format: binding
T1 construct: Recombinant human galectin-3 (Gal3, 26 kDa, full-length galectin-3 or Gal3 FL); made in house
T1 sequence (P17931 whole entry): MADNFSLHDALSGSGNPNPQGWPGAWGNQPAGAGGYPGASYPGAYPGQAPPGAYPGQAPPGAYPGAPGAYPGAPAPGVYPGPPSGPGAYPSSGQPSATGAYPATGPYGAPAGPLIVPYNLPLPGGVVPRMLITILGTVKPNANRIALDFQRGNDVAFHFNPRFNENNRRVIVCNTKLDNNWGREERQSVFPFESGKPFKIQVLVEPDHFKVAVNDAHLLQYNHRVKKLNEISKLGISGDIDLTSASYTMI
From the text: Microscale thermophoresis (MST) is a very sensitive, immobilization-free interaction technique that is based on the speed of migration away from a central point in the capillary that is hit by an infra-red laser at time 0 (Figure 1).
Microscale thermophoresis (MST) is a technique to quantify biomolecular interactions by measuring the directed movement of molecules in a microscopic temperature gradient induced by an infrared laser. The directed movement of molecules in thin capillaries was detected and quantified by means of a red-light fluorophore (NT-647-NHS, with excitation maximum at 647 nm and emission maximum at 670 nm) covalently linked to Gal3 proteins. For labelling, we used two times the concentration of the protein (16 μM Gal3 FL, 43 μM Gal3 CRD) for the fluorophore. Removal of excess fluorphore was combined with buffer exchange into 20 mM Hepes, pH 7.4 with 150 mM NaCl and 0.05% Tween-20.
A two-fold dilution series of ligand concentrations was established ranging from 239 μM to […], with a constant concentration of 4 μM Gal3 FL and 22 μM Gal3 CRD. The samples were loaded into standard glass capillaries and readings were performed with the red light of a Monolith NT.115, with LED power setting of 20% and an MST power setting of 40%. […] The same procedure was repeated for Gal3 CRD and using roscovitine as a ligand. The data were analyzed using the MO Affinity Analysis software v2.2.4.

Gal3 FL [2] = molecular target: T2, Gal3 FL (Homo sapiens, UniProt P17931); test: MST capillary scan, fit to initial fluorescence, Gal3 FL; format: binding; details: capillary scan values, time point 0, read-out: KD from fit of initial (before thermophoresis) fluorescence
T2 construct: Recombinant human galectin-3 (Gal3, 26 kDa, full-length galectin-3 or Gal3 FL); made in house
T2 sequence (P17931 whole entry): as above
From the text: (§1) The large and unwanted initial fluorescence changes (Figure 1D) are unlikely to originate from Trp181 near the lactose-binding site of Gal3 CRD, because the MST was run using red fluorescence excitation and emission wavelengths. Also, although Gal3 FL has three tryptophans (Trp22, Trp26 and Trp181) instead of a single one (Trp181) in Gal3 CRD, it appears less affected (Figure 1A versus D). Therefore, there is more likely an involvement of NT-647-NHS-labelled lysine residues near the binding site of Au^3+TTPS. This involvement of labelled lysines enabled the fit based on the initial fluorescence data (Figure 2). […] Therefore, we initiated tryptophan fluorescence spectroscopy measurements (TFS).
(§2) Microscale thermophoresis (MST) is a technique to quantify biomolecular interactions by measuring the directed movement of molecules in a microscopic temperature gradient induced by an infrared laser. The directed movement of molecules in thin capillaries was detected and quantified by means of a red-light fluorophore (NT-647-NHS, with excitation maximum at 647 nm and emission maximum at 670 nm) covalently linked to Gal3 proteins. […]
(§3) A two-fold dilution series of ligand concentrations was established ranging from 239 μM to […], with a constant concentration of 4 μM Gal3 FL and 22 μM Gal3 CRD. […] The data were analyzed using the MO Affinity Analysis software v2.2.4.

Gal3 CRD [3] = molecular target: T3, Gal3 CRD (Homo sapiens, UniProt P17931); test: MST capillary scan, fit to initial fluorescence, Gal3 CRD; format: binding
T3 construct: The carbohydrate recognition domain (Pro106-Ile250) of human Gal3 (Gal3 CRD); His-tag; made in house; host or cells: Escherichia coli BL21(DE3)
T3 sequence (P17931 106-250): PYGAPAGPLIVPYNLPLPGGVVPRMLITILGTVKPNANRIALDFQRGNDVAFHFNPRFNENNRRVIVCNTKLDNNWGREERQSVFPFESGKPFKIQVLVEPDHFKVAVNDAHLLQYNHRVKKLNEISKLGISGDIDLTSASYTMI
From the text: as §1, §2, §3

Gal3 FL [4] = molecular target: T2, Gal3 FL; test: Tryptophan fluorescence spectroscopy (TFS), Gal3 FL; format: binding; details: 2 μM Gal3 FL; 25 °C; pH 7.4; read-out: KD (TFS, non-linear regression)
From the text: (§4) The formation of Gal3–Au^3+TTPS complexes can be followed by the changes in the intrinsic or tryptophan fluorescence spectroscopy. Binding of the metal-based drug to Gal3 FL caused a red shift of the maximum emission wavelength of about 9 nm (339 nm to 348 nm), as well as a decrease in fluorescence intensity. This is indicative of indole side chains of Trp residues being exposed on the protein surface. […] The hyperbolic nature of the binding curves of gold porphyrin to of Gal3 FL and Gal3 CRD is indicative of the presence of a single binding site for the ligand.
(§5) Figure 3 TFS measurements of complex formation with Gal3. […] The data points were plotted as means ± standard error of the mean for three independent experimental data sets.
(§6) Tryptophan fluorescence spectroscopy (TFS) was performed on a Shimadzu spectrofluorometer (Shimadzu, Kyoto, Japan). […] Total fluorescence was calculated after normalization of the fluorescence spectra and corrected for dilution. In order to account for the inner filter and the self-absorption effects, the experiments were always carried out on samples with absorbance (OD280nm) less than 0.05. Absorbance was measured using a spectrophotometer (Beckman, Brea, CA, USA). All measurements were performed at 25 °C, with the temperature of the samples determined in the cuvette with an accuracy of ± 0.2 °C.

Gal3 CRD [5] = molecular target: T3, Gal3 CRD; test: Tryptophan fluorescence spectroscopy (TFS), Gal3 CRD; format: binding; details: 10 μM Gal3 CRD; 25 °C; pH 7.4; read-out: KD (TFS, non-linear regression)
From the text: as §4, §5, §6

Gal3 FL [6] = molecular target: T2, Gal3 FL; test: Isothermal titration calorimetry (ITC), Gal3 FL; format: binding; details: 22 °C
From the text: We used isothermal titration calorimetry (ITC), which is a molecular interaction technique ideal for the reliable determination of stoichiometric ratios in the protein soluble state. […] The reaction is exothermic and enthalpy driven with a heat release of −5363 ± 196.4 cal/mol, indicating a substantial number of non-covalent bonding during complex formation. Moreover, the interaction also profits from a significant entropic contribution of 1956 cal/mol.
A VP-ITC MicroCal instrument (Malvern Panalytical Ltd, Malvern, UK) with cell volume of 1.4253 mL was used at 22 °C for the measurement of the stoichiometric ratio and the enthalpy/entropy contributions to the binding of gold prophyrin to Gal3 FL. Prior to the experiment, the Gal3 FL protein was dialyzed extensively against 20 mM Hepes at pH 7.4 and 150 mM NaCl, the buffer used for the experiment.

Gal3 CRD [7] = molecular target: T3, Gal3 CRD; test: Isothermal titration calorimetry (ITC), Gal3 CRD; format: binding; details: Gal3 CRD 32.67 μM, also at twice higher concentrations
Gal3 = details: cited from earlier work
Gal3 CRD [8] = molecular target: T3, Gal3 CRD; parameters: method as in PMID 31094416; details: ref 46; cited from earlier work

binding after SDS denaturation of Gal3 FL (SD test) ([1]; Gal3 FL denatured with 4% SDS, 40 mM DTT, 95 °C, same concentration series): without observing binding
Kd ([1]; Gal3 FL labelled with NT-647-NHS, 4 μM Gal3 FL, thermophoresis read-out, read-out: KD (MST curves)): 2.84 ± 1.03 µM
Kd (Gal3 FL [2]): 5.83 ± 0.65 µM
Kd (Gal3 CRD [3]; Gal3 CRD, capillary scan values, time point 0, read-out: KD from fit of initial (before thermophoresis) fluorescence): 25.9 ± 0.65 µM
weaker binding of truncated Gal3 (CRD) versus Gal3 FL (Gal3 CRD [3]; comparison of initial fluorescence fits): at Least 5 fold
Kd (Gal3 FL [4]): 2.6 ± 0.6 µM
Kd (Gal3 CRD [5]): 22.7 ± 5.6 µM
change in Gibbs free energy (ΔG) (ITC) (Gal3 FL [6]): -7.326 kcal/mol
entropic contribution (ITC) (Gal3 FL [6]): 1.956 kcal/mol
heat release (enthalpy) (ITC) (Gal3 FL [6]): -5.363 ± 0.1964 kcal/mol
stoichiometry (ITC) (Gal3 FL [6]): 1.02 ± 0.03 sites
Kd (Gal3 FL [6]; 20 mM Hepes pH 7.4, 150 mM NaCl, read-out: equilibrium dissociation constant KD (ITC)): 3.78 ± 0.27 µM
ITC titration result with Gal3 CRD (Gal3 CRD [7]): no measurable results
Compound: 5,10,15,20-Tetrakis(4-sulfonatophenyl)-porphyrin-Au(III)chloride [Au^3+TPPS]

Compound: OC[C@H]1O[C@@H](O[C@H]2[C@H](O)[C@@H](O)C(O)O[C@@H]2CO)[C@H](O)[C@@H](O)[C@H]1O (mixture of isomers) [lactose]
inhibition of Zn^2+TTPS binding to Gal3 (Gal3; ref 42): did not inhibit

Compound: CC(=O)N[C@H]1C(O)O[C@H](CO)[C@@H](O[C@@H]2O[C@H](CO)[C@H](O)[C@H](O)[C@H]2O)[C@@H]1O (some centres unmarked) [N-acetyllactosamine]
Kd (Gal3; ref 43): 25 µM
Kd (Gal3; ref 44): 28 µM
Kd (Gal3; ref 45): 112 µM
Kd (Gal3; ref 46): 118 µM

Compound: CC[C@H](CO)Nc1nc(NCc2ccccc2)c2ncn(C(C)C)c2n1 [roscovitine, reference compound]
affinity between Gal3 FL and ligand (MST) ([1]; Gal3 FL, MST): no affinity

Compound: CD146: cluster of differentiation 146, melanoma cell adhesion molecule, cell surface glycoprotein
affinity for Gal3 CRD (Gal3 CRD [8]): unmeasurable
